This note sets out measurements from ChEMBL document CHEMBL4229381, “New cytokinin derivatives possess UVA and UVB photoprotective effect on human skin cells and prevent oxidative stress” (Eur J Med Chem, 2018).

The source made the active and inactive calls. No cut-off for these calls is given here.

Data set [1] is described as follows: Stability of the compound in pH 3 solution at 10^-4 M after 1 hr by HPLC analysis. It counts as physicochemical. As to conditions: read-out: Stability.
A short description of data set [2]: Stability of the compound in pH 6 solution at 10^-4 M after 24 hrs by HPLC analysis. It counts as physicochemical. The following applies: read-out: Stability.
Data set [3] can be described thus: Stability of the compound in pH 3 solution at 10^-4 M after 24 hrs by HPLC analysis. It counts as physicochemical. The following applies: read-out: Stability.
Data set [4] has as its system BJ. The data set is described as follows: Cytotoxicity in human BJ cells assessed as reduction in cell viability at 50 uM after 24 hrs by resazurin dye-based fluorescence assay relative to control. On the technique in general: Resazurin is reduced to fluorescent resorufin, in cell work by metabolically active cells.
Data set [5] can be described thus: Cytotoxicity in human NHDF cells assessed as cell viability at 3.9 uM after 24 hrs by neutral red uptake assay relative to control. It counts as cell-based. The following applies: read-out: Activity.
Data set [6] in a line: Phototoxicity in human NHDF cells assessed as cell viability at 7.8 uM preincubated for 60 mins followed by 5 J/cm2 UVA irradiation and measured after 24 hrs by neutral red uptake assay relative to control. It counts as cell-based. As to conditions: read-out: Activity.
The nature of data set [7]: Cytotoxicity in human HaCaT cells assessed as cell viability at 7.8 uM after 24 hrs by neutral red uptake assay relative to control. It counts as cell-based. As to conditions: read-out: Activity.
Data set [8] is described as follows: Cytotoxicity in human HaCaT cells assessed as cell viability at 15.6 uM after 24 hrs by neutral red uptake assay relative to control. It counts as cell-based. As to conditions: read-out: Activity.
The nature of data set [9]: Cytotoxicity in human HaCaT cells assessed as cell viability at 31.3 uM after 24 hrs by neutral red uptake assay relative to control. It counts as cell-based. The following applies: read-out: Activity.
The nature of data set [10]: Phototoxicity in human HaCaT cells assessed as cell viability at 3.9 uM preincubated for 60 mins followed by 7.5 J/cm2 UVA irradiation and measured after 24 hrs by neutral red uptake assay relative to control. It counts as cell-based. The following applies: read-out: Activity.
Data set [11] in a line: Phototoxicity in human HaCaT cells assessed as cell viability at 62.5 uM preincubated for 60 mins followed by 7.5 J/cm2 UVA irradiation and measured after 24 hrs by neutral red uptake assay relative to control. It counts as cell-based. As to conditions: read-out: Activity.
In data set [12] the test system is HaCaT. The data set is described as follows: Potency index, ratio of compound effect to rosmarinic acid effect for cytoprotection against phototoxicity in human HaCaT cells assessed as increase in cell viability at 3.9 uM preincubated for 60 mins followed by 150 mJ/cm2 UVB irradiation and measured after 24 hrs by neutral red uptake assay. It counts as functional.

The test system of data set [13] is Caenorhabditis elegans. The data set is described as follows: Protection against juglone-induced oxidative stress in wild type Caenorhabditis elegans N2 at 100 uM preincubated for 3 days followed by juglone addition and measured after 4 hrs by inverted microscopic analysis. It counts as functional, organism-based.

As for `c1csc(CNc2ncnc3c2ncn3C2CCCO2)c1` (stereo not drawn), the remaining at 1 h, 100 µM in data set [1] is 94.6%. The remaining at 24 h, 100 µM in data set [2] stood at 100%; in data set [3], 0.8%. For the same molecule, the Activity in data set [4] was less than 10%. Further, the results for the viability at 24 h, 3.9 µM in data set [5] and in data set [10] were 100% and 123%, respectively. Further, the viability at 24 h, 7.8 µM in data set [6] came out at 102%; in data set [7], 101%. Besides, the viability at 24 h, 15.6 µM in [8] is 100%. In addition, the viability at 24 h, 31.3 µM in [9] is 102%. The viability at 24 h, 62.5 µM in [11] turned out to be 130%. The Ratio in [12] is on record as more than 2. Moreover, the outcome in data set [13] was Active.
